Measured values published in patent US8012998B2, “Pyrrolidine aryl-ether as NK-3 receptor antagonists” (Hoffmann—LA Roche Inc., priority 2007, dated 2011).

Biological target: T1, human NK3 receptor (Homo sapiens, UniProt P29371)
T1 construct: expressed in transfected cells; host or cells: HEK293 cells (transient expression), membrane preparation
T1 sequence (P29371 1-465): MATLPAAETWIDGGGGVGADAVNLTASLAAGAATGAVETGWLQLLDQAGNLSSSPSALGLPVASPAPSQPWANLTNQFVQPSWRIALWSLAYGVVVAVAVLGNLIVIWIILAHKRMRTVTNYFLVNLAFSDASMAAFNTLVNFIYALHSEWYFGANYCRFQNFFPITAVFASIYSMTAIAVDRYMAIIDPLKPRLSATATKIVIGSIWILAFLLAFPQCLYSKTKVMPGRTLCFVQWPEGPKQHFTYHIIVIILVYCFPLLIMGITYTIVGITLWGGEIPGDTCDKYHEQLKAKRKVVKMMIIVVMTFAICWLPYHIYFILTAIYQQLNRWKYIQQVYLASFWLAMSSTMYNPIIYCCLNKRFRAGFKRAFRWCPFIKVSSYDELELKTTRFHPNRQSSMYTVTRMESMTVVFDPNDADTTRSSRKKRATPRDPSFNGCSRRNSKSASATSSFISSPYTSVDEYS
Experiment: [3H]SR142801 competition binding assay (hNK3 receptor binding)
Conditions: [3H]SR142801 radioligand; membranes from HEK293 cells transiently expressing recombinant human NK3 receptor; Ki by Cheng-Prussoff; read-out: KiNK3 h
Experimental: [^3H]SR^142801 Competition Binding Assay
hNK3 receptor binding experiment were performed using [^3H]SR^142801 (Catalog No. TRK1035, specific activity: 74.0 Ci/mmol, Amersham, GE Healthcare UK limited, Buckinghamshire, UK) and membrane isolated from HEK293 cells transiently expressing recombinant human NK3 receptor. After thawing, the membrane homogenates were centrifuged at 48,000×g for 10 min at 4° C., the pellets were resuspended in the 50 mM Tris-HCl, 4 mM MnCl2, 1 μM phosphoramidon, 0.1% BSA binding buffer at pH 7.4 to a final assay concentration of 5 μg protein/well. […] At the end of the incubation, membranes were filtered onto unitfilter (96-well white microplate with bonded GF/C filter preincubated 1 h in 0.3% PEI +0.3% BSA, Packard BioScience, Meriden, Conn.) with a Filtermate 196 harvester (Packard BioScience) and washed 4 times with ice-cold 50 mM Tris-HCl, pH 7.4 buffer. Nonspecific binding was measured in the presence of 10 μM SB222200 for both radioligands. The radioactivity on the filter was counted (5 min) on a Packard Top-count microplate scintillation counter with quenching correction after addition of 45 μl of microscint 40 (Canberra Packard S.A., Zutrich, Switzerland) and shaking for 1 h. Inhibition curves were fitted according to the Hill equation: y=100/(1+(x/IC50)^nH), where nH=slope factor using Excel-fit 4 software (Microsoft). IC50 values were derived from the inhibition curve and the affinity constant (Ki) values were calculated using the Cheng-Prussoff equation Ki=IC50/(1+[L]/KD) where [L] is the concentration of radioligand and KD is its dissociation constant at the receptor, derived from the saturation isotherm. All experiments were performed in duplicate and the mean ± standard error (SEM) of the individual Ki values was calculated.

| Ki | SMILES |
| --- | --- |
| 33.6 nM | C[C@H](Oc1ccc(C#N)cn1)[C@H]1CN(C(=O)c2ccc(F)nc2)C[C@@H]1c1ccc(Cl)c(Cl)c1 (racemic) [Example 75, 6-{(SR)-1-[(3RS,4SR)-4-(3,4-Dichloro-phenyl)-1-(6-fluoro-pyridine-3-carbonyl)-pyrrolidin-3-yl]-ethoxy}-nicotinonitrile] |
| 0.6 nM | Cc1noc(-c2ccc(C(=O)N3C[C@H]([C@H](C)Oc4ccc(C(F)(F)F)cn4)[C@@H](c4ccc(Cl)c(Cl)c4)C3)cc2)n1 (racemic) [Example 83, {(3SR,4RS)-3-(3,4-Dichloro-phenyl)-4-[(SR)-1-(5-trifluoromethyl-pyridin-2-yloxy)-ethyl]-pyrrolidin-1-yl}-[4-(3-methyl-[1,2,4]oxadiazol-5-yl)-phenyl]-methanone] |
| 25.7 nM | Cc1ncc(C(=O)N2C[C@H]([C@H](C)Oc3ccc(Cl)cn3)[C@@H](c3ccc(F)c(F)c3)C2)cn1 [Example 103, [(3R,4S)-3-[(S)-1-(5-Chloro-pyridin-2-yloxy)-ethyl]-4-(3,4-difluoro-phenyl)-pyrrolidin-1-yl]-(2-methyl-pyrimidin-5-yl)-methanone] |
| 2.1 nM | C[C@H](Oc1ccc(C#N)cn1)[C@H]1CN(C(=O)c2ccc(-c3nnco3)cc2)C[C@@H]1c1ccc(Cl)c(Cl)c1 (racemic) [Example 63, 6-{(SR)-1[-(3RS,4SR)-4-(3,4-Dichloro-phenyl)-1-(4-[1,3,4]oxadiazol-2-yl-benzoyl)-pyrrolidin-3-yl]-ethoxy}-nicotinonitrile] |
| 3 nM | Cc1cc(C(=O)N2C[C@H]([C@H](C)Oc3ccc(C(F)(F)F)cn3)[C@@H](c3ccc(Cl)cc3)C2)cnn1 [Example 119, {(3S,4R)-3-(4-Chloro-phenyl)-4-[(S)-1-(5-trifluoromethyl-pyridin-2-yloxy)-ethyl]-pyrrolidin-1-yl}-(6-methyl-pyridazin-4-yl)-methanone] |
| 79.8 nM | COc1ccc(C(=O)N2C[C@@H]([C@@H](C)Oc3ccc(C(F)(F)F)cc3)[C@H](c3ccc(Cl)c(Cl)c3)C2)cn1 (racemic) [Example 9, {(3RS,4SR)-3-(3,4-Dichloro-phenyl)-4-[(RS)-1-(4-trifluoromethyl-phenoxy)-ethyl]-pyrrolidin-1-yl}-(6-methoxy-pyridin-3-yl)-methanone] |
| 7.5 nM | C[C@H](Oc1ccc(C(F)(F)F)cn1)[C@H]1CN(C(=O)c2cnc(C3CC3)nc2)C[C@@H]1c1ccc(Cl)c(Cl)c1 (racemic) [Example 85, (2-Cyclopropyl-pyrimidin-5-yl)-{(3SR,4RS)-3-(3,4-dichloro-phenyl)-4-[(SR)-1-(5-trifluoromethyl-pyridin-2-yloxy)-ethyl]-pyrrolidin-1-yl}-methanone] |
| 91.4 nM | Cc1ncc(C(=O)N2C[C@H]([C@H](C)Oc3ccc(C#N)cn3)[C@@H](c3ccc(F)c(Cl)c3)C2)cn1 [Example 102, 6-{(S)-1-[(3R,4S)-4-(3-Chloro-4-fluoro-phenyl)-1-(2-methyl-pyrimidine-5-carbonyl)-pyrrolidin-3-yl]-ethoxy}-nicotinonitrile] |
| 52.4 nM | Cc1nccc(C(=O)N2C[C@H]([C@H](C)Oc3ccc(C#N)cn3)[C@@H](c3ccc(Cl)c(Cl)c3)C2)n1 (racemic) [Example 95, 6-{(SR)l-1[-(3RS,4SR)-4-(3,4-Dichloro-phenyl)-1-(2-methyl-pyrimidine-4-carbonyl)-pyrrolidin-3-yl]-ethoxy}-nicotinonitrile] |
| 64.6 nM | Cc1cccc(C(=O)N2C[C@H]([C@H](C)Oc3ccc(C#N)cn3)[C@@H](c3ccc(Cl)c(Cl)c3)C2)n1 (racemic) [Example 93, 6-{(SR)-1-[(3RS,4SR)-4-(3,4-Dichloro-phenyl)-1-(6-methyl-pyridine-2-carbonyl)-pyrrolidin-3-yl]-ethoxy}-nicotinonitrile] |
| 2.8 nM | Cc1cc(C(=O)N2C[C@H]([C@H](C)Oc3ccc(Cl)cn3)[C@@H](c3ccc(Cl)cc3)C2)cnn1 [Example 108, {(3S,4R)-3-(4-Chloro-phenyl)-4-[(S)-1-(5-chloro-pyridin-2-yloxy)-ethyl]-pyrrolidin-1-yl}-(6-methyl-pyridazin-4-yl)-methanone] |
| 4.8 nM | C[C@H](Oc1ccc(C(F)(F)F)cn1)[C@H]1CN(C(=O)c2ccc(Cl)nc2)C[C@@H]1c1ccc(Cl)c(Cl)c1 (racemic) [Example 81, (6-Chloro-pyridin-3-yl)-{(3SR,4RS)-3-(3,4-dichloro-phenyl)-4-[(SR)-1-(5-trifluoromethyl-pyridin-2-yloxy)-ethyl]-pyrrolidin-1-yl}-methanone] |
| 33.8 nM | Cc1ccnc(C(=O)N2C[C@H]([C@H](C)Oc3ccc(C#N)cn3)[C@@H](c3ccc(Cl)c(Cl)c3)C2)c1 (racemic) [Example 92, 6-{(SR)-1-[(3RS,4SR)-4-(3,4-Dichloro-phenyl)-1-(4-methyl-pyridine-2-carbonyl)-pyrrolidin-3-yl]-ethoxy}-nicotinonitrile] |
| 11 nM | Cc1ncc(C(=O)N2C[C@H]([C@H](C)Oc3ccc(Cl)cn3)[C@@H](c3ccc(Cl)c(F)c3)C2)cn1 [Example 90, {(3S,4R)-3-(4-Chloro-3-fluoro-phenyl)-4-[(S)-1-(5-chloro-pyridin-2-yloxy)-ethyl]-pyrrolidin-1-yl}-(2-methyl-pyrimidin-5-yl)-methanone] |
| 24.6 nM | C[C@H](Oc1ccc(C#N)cn1)[C@H]1CN(C(=O)c2ccc(CN(C)C)nc2)C[C@@H]1c1ccc(Cl)c(Cl)c1 (racemic) [Example 43, 6-{(SR)-1-[(3RS,4SR)-4-(3,4-Dichloro-phenyl)-1-(6-dimethylaminomethyl-pyridine-3-carbonyl)-pyrrolidin-3-yl]-ethoxy}-nicotinonitrile] |
| 25.5 nM | C[C@@H](Oc1ccc(Cl)cn1)[C@@H]1CN(C(=O)c2ccc(CN(C)C)cc2)C[C@H]1c1ccc(Cl)c(Cl)c1 (racemic) [Example 42, [(3SR,4RS)-3-[(RS)-1-(5-Chloro-pyridin-2-yloxy)-ethyl]-4-(3,4-dichloro-phenyl)-pyrrolidin-1-yl]-(4-dimethylaminomethyl-phenyl)-methanone] |
| 32.8 nM | C[C@H](Oc1ccc(C#N)cn1)[C@H]1CN(C(=O)c2ccnnc2)C[C@@H]1c1ccc(Cl)c(Cl)c1 (racemic) [Example 77, 6-{(SR)-1-[(3RS,4SR)-4-(3,4-Dichloro-phenyl)-1-(pyridazine-4-carbonyl)-pyrrolidin-3-yl]-ethoxy}-nicotinonitrile] |
| 85.4 nM | Cc1cc(C(=O)N2C[C@H]([C@H](C)Oc3ccc(C#N)cn3)[C@@H](c3ccc(F)c(F)c3)C2)c(C)nn1 [Example 114, 6-{(S)-1-[(3R,4S)-4-(3,4-Difluoro-phenyl)-1-(3,6-dimethyl-pyridazine-4-carbonyl)-pyrrolidin-3-yl]-ethoxy}-nicotinonitrile] |
| 6.8 nM | Cc1ncc(C(=O)N2CC(c3ccc(Cl)c(Cl)c3)[C@@H]([C@H](C)Oc3ccc(Cl)cn3)C2)cn1 (single isomer, unassigned) [Example 40] |
| 80 nM | C[C@@H](Oc1ccc(Cl)cn1)[C@@H]1CN(C(=O)c2ccc(CC#N)o2)C[C@H]1c1ccc(Cl)c(Cl)c1 (racemic) [Example 30, {5-[(3SR,4RS)-3-[(RS)-1-(5-Chloro-pyridin-2-yloxy)-ethyl]-4-(3,4-dichloro-phenyl)-pyrrolidine-1-carbonyl]-furan-2-yl}-acetonitrile] |
| 4.6 nM | C[C@@H](Oc1ccc(Cl)cn1)[C@@H]1CN(C(=O)c2cnc(C#N)nc2)C[C@H]1c1ccc(Cl)c(Cl)c1 [Example 50, 5-[(3S,4R)-3-[(R)-1-(5-Chloro-pyridin-2-yloxy)-ethyl]-4-(3,4-dichloro-phenyl)-pyrrolidine-1-carbonyl]-pyrimidine-2-carbonitrile] |
| 67.5 nM | Cc1cnc(C(=O)N2C[C@H]([C@H](C)Oc3ccc(C#N)cn3)[C@@H](c3ccc(Cl)c(Cl)c3)C2)cn1 (racemic) [Example 97, 6-{(SR)-1-[(3RS,4SR)-4-(3,4-Dichloro-phenyl)-1-(5-methyl-pyrazine-2-carbonyl)-pyrrolidin-3-yl]-ethoxy}-nicotinonitrile] |
| 28.9 nM | C[C@H](Oc1ccc(C#N)cn1)[C@H]1CN(C(=O)c2ccc3[nH]cnc3c2)C[C@@H]1c1ccc(Cl)c(Cl)c1 (racemic) [Example 69, 6-{(SR)-1-[(3RS,4SR)-1-(1H-Benzoimidazole-5-carbonyl)-4-(3,4-dichloro-phenyl)-pyrrolidin-3-yl]-ethoxy}-nicotinonitrile] |
